Results taken from US9988381B2, “Five-member-heterocycle fused pyridine compounds, method of producing the same, and use thereof” (SHANGHAI INSTITUTE OF MATERIA MEDICA, CHINESE ACADEMY OF …, priority 2013, dated 2018).
Read-outs that look alike come from different tables or passages of the source.

Assays:
BaF3/TPR-Met cell = experiment: Test III: growth inhibition of engineered BaF3/TPR-Met cells (MTT); assay type: cell-based; conditions: BaF3/TPR-Met, 72 hours; for inhibition at 0.2 µM / inhibition at 1 µM: Mus musculus; for inhibition at 0.2 µM: read-out: Cell proliferation inhibition rate at 200 nM (%), 200 nM; for inhibition at 1 µM: read-out: Cell proliferation inhibition rate at 1 μM (%)
Experimental: Assays on the growth inhibition of the compounds against engineered BaF3/TPR-Met cell (engineered cell line having TPR-Met fusion protein stably expressed in cytoplasm, persistently activated, Met dependent sensitive cell line; BaF3 cell was purchased from DSMZ, German) were detected using microculture tetrozolium (MTT) staining. A certain amount of BaF3/TPR-Met cells at log phase were inoculated into 96-well culture plate at 90 µL per well, incubated overnight and then 10 μL compound at various concentrations or vehicle control (normal saline) was added, each concentration was tested in triplicate. After incubation with compound for 72 hours, the incubation was terminated, MTT solution (5 mg/mL) was added at 20 μL per well, incubated at 37° C. for 4 hours, then 100 μL triplet solution (10% SDS−5% isobutanol−0.01M HCl) was added, incubated overnight at 37° C., OD value was measured at 570 nm. […] Experiments were conducted in duplicates.

[1] = target: T1, c-Met kinase domain recombinant protein (Homo sapiens, UniProt P08581); experiment: biochemical; conditions: for inhibition at 10 µM: read-out: Inhibition rate at 10 μM (%)
T1 construct: 50 μL diluted solution of c-Met kinase domain recombinant protein in reaction buffer was added to initiate the reaction
In short: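 ELISA on plates coated with Poly(Glu,Tyr)4:1 (20 μg/mL), kinase reaction with c-Met kinase domain and ATP in HEPES pH 7.4 buffer with MgCl2, MnCl2, Na3VO4 and DTT, 1 h at 37 °C. Phosphotyrosine detected with PY99 and HRP secondary antibody, read at 490 nm; inhibition rate calculated against ATP-free control.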

[2] = target: T1, c-Met kinase domain recombinant protein; experiment: biochemical; conditions: for inhibition at 0.1 µM: read-out: Average inhibition rate at 0.1 μM (%); for inhibition at 1 µM: read-out: Average inhibition rate at 1 μM (%); for inhibition at 10 µM: read-out: Average inhibition rate at 10 μM (%)
In short: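 ELISA on plates coated with Poly(Glu,Tyr)4:1 (20 μg/mL coating solution). Recombinant c-Met kinase domain reacted with 5 μM ATP in HEPES pH 7.4 with Mg/Mn, vanadate and DTT for 1 hour at 37° C. Phosphotyrosine was detected with PY99 and HRP secondary antibody, read at 490 nm, and IC50 was taken from a four-parameter fit.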

MKN45 cell = experiment: Test III: growth inhibition of gastric tumor cell MKN45 (SRB); assay type: cell-based; conditions: Homo sapiens
Experimental: (§1) Assays on the growth inhibition of the compounds against gastric tumor cell MKN45, non-small cell carcinoma EBC-1 cell (both are MET persistent activated cell lines due to MET gene amplification, and are Met dependent tumor cell lines, MKN45 cell was purchased from JCRB, Japan, EBC-1 cell was purchased from ATCC, USA) were detected using sulforhodamine B (SRB) staining. […] After incubation with compound for 72 hours, the incubation was terminated, adherent cells were retained and medium was discarded, 10% (w/v) trichloroacetic acid (100 μL pre well) was added, the cells were fixed at 4° C. for 1 hour, then rinsed with distilled water for 5 times, after dried at room temperature, SRB solution (4 mg/mL, dissolved in 1% glacial acetic acid) was added at 100 μL per well, incubated and stained at room temperature for 15 minutes, then rinsed with 1% glacial acetic acid for 5 times to remove any unbound SRB, dried at room temperature, then 10 mM Tris solution was added at 100 μL per well, the optical density (OD) value at 515 nm was measured using VERSMax microplate reader.
(§2) Experiments were conducted in duplicates. IC50 value was calculated by fitting the data for a four parameter fit using inhibition curve, the results are shown below in Table 2.

[3] = tested on: human lung cancer EBC-1 xenograft; experiment: Test IV: human non-small cell lung cancer EBC-1 xenograft growth in nude mice; assay type: in vivo
Experimental: EBC-1 cells were implanted subcutaneously in the right axilla of nude mice at 5×10^6 cells per mouse, xenograft developed thereby was passaged in nude mice for 3 generations prior to use. Tumor tissue at rapid growth phase was taken, minced under sterile condition into pieces of about 1.5 mm^3, then implanted subcutaneously in the right axilla of nude mice.
Xenografted tumor diameters were measured twice per week, and body weights of the mice were measured at the same time. Tumor Volume (TV) was calculated by the following equation: TV=1/2×a×b^2, wherein a, b refers to the length and width, respectively. Based on the measurement, Relative Tumor Volume (RTV) was calculated by the following equation: RTV=Vt/V0, wherein V0 is the tumor volume measured when divided for administration (i.e., do), Vt is the tumor volume measured at each timepoint.

EBC-1 cell = experiment: Test III: growth inhibition of non-small cell carcinoma EBC-1 cell (SRB); assay type: cell-based; conditions: Homo sapiens, EBC-1, 72 h; for inhibition at 0.2 µM: read-out: Cell proliferation inhibition rate at 200 nM (%); for inhibition at 1 µM: read-out: Cell proliferation inhibition rate at 1 μM (%)
Experimental: as §1, §2

[4] = MKN-45, read-out: Cell proliferation inhibition rate at 1 μM (%), MKN45, 1 μM, 72 hours

T1 sequence (P08581 1078-1345 limits assumed): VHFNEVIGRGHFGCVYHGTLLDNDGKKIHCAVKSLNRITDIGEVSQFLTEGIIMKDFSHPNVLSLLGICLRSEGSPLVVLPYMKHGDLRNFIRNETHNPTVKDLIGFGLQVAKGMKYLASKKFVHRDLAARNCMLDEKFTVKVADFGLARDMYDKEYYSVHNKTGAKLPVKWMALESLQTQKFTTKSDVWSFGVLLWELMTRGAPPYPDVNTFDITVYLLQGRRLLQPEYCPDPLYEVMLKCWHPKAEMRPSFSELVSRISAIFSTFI

Row | SMILES | inhibition at 10 µM [1] [%] | inhibition at 0.1 µM [2] [%] | inhibition at 1 µM [2] [%] | inhibition at 10 µM [2] [%] | inhibition at 1 µM (MKN45 cell; [4]) [%] | other results
1 | CC(C)(C)OC(=O)N1CCC(n2cc(-c3cnc4cnn(S(=O)(=O)c5cnc6ccc(Cl)nn56)c4c3)cn2)CC1 [Example 61] | 59.8 | 73.7 | 76 | 83.2 |  | inhibition at 0.2 µM (BaF3/TPR-Met cell): 83.1%; inhibition at 1 µM (BaF3/TPR-Met cell; 1 μM): 91.7%
2 | CC(C)(C)OC(=O)N1CCC(n2cc(-c3cnc4cnn(S(=O)(=O)c5cnc6ccc(C(F)(F)F)cn56)c4c3)cn2)CC1 [Example 63] | 83.2 | 59 | 60.4 | 63 |  | inhibition at 1 µM (BaF3/TPR-Met cell; 1 μM): 66.5%
3 | Cl.O=S(=O)(c1cnc2ccccn12)n1ncc2ncc(-c3cnn(C4CCNCC4)c3)cc21 [Example 66, 1-(imidazo[1,2-a]pyridine-3-sulfonyl)-6-{[1-(4-piperidinyl)]-4-pyrazolyl}-1-H-pyrazolo[4,3-b]pyridine chloride] |  |  |  |  |  | Cell proliferation inhibition rate at 1 μM (%) (BaF3/TPR-Met cell; 1 μM): 92.7%; Inhibition rate at 10 μM (%) ([1]; compound 10 μM, Table 1): 63%; Average inhibition rate at 0.1 μM (%) ([2]; compound 0.1 μM): 73.3%; Average inhibition rate at 1 μM (%) ([2]; compound 1 μM): 75.8%; Average inhibition rate at 10 μM (%) ([2]; compound 10 μM, Table 2): 79.9%
4 | CC(C)(C)OC(=O)N1CCC(n2cc(-c3cnc4cnn(S(=O)(=O)c5cnc6ccc(Cl)cn56)c4c3)cn2)CC1 [Example 67] | 66 | 63.1 | 64.6 | 68.2 |  | inhibition at 0.2 µM (BaF3/TPR-Met cell): 90.3%; inhibition at 1 µM (BaF3/TPR-Met cell; 1 μM): 91.6%
5 | Cn1cc(-c2cnc3cnn(S(=O)(=O)c4cnc5ccc(-c6ccsc6)cn45)c3c2)cn1 [Example 72, 1-{[6-(3-thiophene)-imidazo[1,2-a]pyridine]-3-sulfonyl}-6-[(1-methyl)-4-pyrazolyl]-1-H-pyrazolo[4,3-b]pyridine] | 80.9 | 70.1 | 80.3 | 76.5 |  | inhibition at 1 µM (MKN45 cell; MKN-45, 72 h, read-out: Cell proliferation inhibition rate at 1 μM (%)): 72.8%; IC50 [2]: 0.04 ± 0.04 nM
6 | CN(C)C(=O)c1ccc(-c2ccc3ncc(S(=O)(=O)n4ncc5ncc(-c6cnn(C)c6)cc54)n3c2)cc1 [Example 73, 1-{[6-(4-dimethylaminocarbonylphenyl)-imidazo[1,2-a]pyridine]-3-sulfonyl}-6-[(1-methyl)-4-pyrazolyl]-1-H-pyrazolo[4,3-b]pyridine] | 59.6 | 78 | 72.8 | 76.9 | 14.4 | 
7 | Cn1cc(-c2cnc3cnn(S(=O)(=O)c4cnc5ccc(-c6cnn(C7CCN(C(=O)OC(C)(C)C)CC7)c6)cn45)c3c2)cn1 [Example 76, 1-{(6-{{1-[(1-t-butoxycarbonyl)-4-piperidinyl]}-4-pyrazolyl}-imidazo[1,2-a]pyridine)-3-sulfonyl}-6-[(1-methyl)-4-pyrazolyl]-1-H-pyrazolo[4,3-b]pyridine] | > 76.3 | 78 | 75.5 | 78.3 | 14.9 | 
8 | Cn1cc(-c2cnc3cnn(S(=O)(=O)c4cnc5ccc(-c6ccc(F)cc6)cn45)c3c2)cn1 [Example 81, 1-{[6-(4-fluorophenyl)-imidazo[1,2-a]pyridine]-3-sulfonyl}-6-[(1-methyl)-4-pyrazolyl]-1-H-pyrazolo[4,3-b]pyridine] | > 68.7 | 72.9 | 73.6 | 80.2 | 24.7 | 
9 | Cc1ccc(-c2ccc3ncc(S(=O)(=O)n4ncc5ncc(-c6cnn(C)c6)cc54)n3c2)cc1 [Example 90, 1-{[6-(4-methylphenyl)-imidazo[1,2-a]pyridine]-3-sulfonyl}-6-[(1-methyl)-4-pyrazolyl]-1-H-pyrazolo[4,3-b]pyridine] | > 72.2 | 69 | 83 | 81.1 | 17.6 | 
10 | CN1CCN(C(=O)c2ccc(-c3cnc4cnn(S(=O)(=O)c5cnc6ccc(-c7cnn(C)c7)cn56)c4c3)cc2)CC1 [Example 142, 1-{(6-[(1-methyl)-4-pyrazolyl]-imidazo[1,2-a]pyridine)-3-sulfonyl}-6-[4-(4-methylpiperazine-1-carbonyl)phenyl]-1-H-pyrazolo[4,3-b]pyridine] |  | 89.4 | 91.3 |  |  | TV (mm^3, mean ± SD) d21 ([3]; 50 mg/kg po qd/21): 259 ± 421 ^ mm^3; Weight (g) d21 ([3]; 50 mg/kg po qd/21): 21.0 g; GI (%) ([3]; 50 mg/kg po qd/21, d21): 90.65%; RTV (mean ± SD) ([3]; 50 mg/kg po qd/21, d21): 2.23 ± 3.89; T/C (%) ([3]; 50 mg/kg po qd/21, day 21): 16.91%; TV (mm^3, mean ± SD) d21 ([3]; 100 mg/kg po qd/21): 21 ± 34 mm^3; Weight (g) d21 ([3]; 100 mg/kg po qd/21): 20.9 g; GI (%) ([3]; 100 mg/kg po qd/21, d21): 106.70%; RTV (mean ± SD) ([3]; 100 mg/kg po qd/21, d21): 0.14 ± 0.21; T/C (%) ([3]; 100 mg/kg po qd/21, day 21): 1.05%; inhibition at 0.2 µM (EBC-1 cell): 92.1%; inhibition at 1 µM (EBC-1 cell): 92.6%; IC50 [2]: 0.5 ± 0.1 nM
11 | CC(C)N1CCC(n2cc(-c3cnc4cnn(S(=O)(=O)c5cnc6ccc(-c7cnn(C)c7)cn56)c4c3)cn2)CC1 [Example 145, 1-{(6-[(1-methyl)-4-pyrazolyl]-imidazo[1,2-a]pyridine)-3-sulfonyl}-6-{(1-[(1-isopropyl)-4-piperidinyl]}-4-pyrazolyl}-1-H-pyrazolo[4,3-b]pyridine] |  | 90.6 | 87.1 |  |  | TV (mm^3, mean ± SD) d21 ([3]; 50 mg/kg po qd/21): 36 ± 49 mm^3; Weight (g) d21 ([3]; 50 mg/kg po qd/21): 19.9 g; GI (%) ([3]; 50 mg/kg po qd/21, d21): 106.14%; RTV (mean ± SD) ([3]; 50 mg/kg po qd/21, d21): 0.31 ± 0.50; T/C (%) ([3]; 50 mg/kg po qd/21, day 21): 2.36%; TV (mm^3, mean ± SD) d21 ([3]; 100 mg/kg po qd/21): 8 ± 13 mm^3; Weight (g) d21 ([3]; 100 mg/kg po qd/21): 19.1 g; GI (%) ([3]; 100 mg/kg po qd/21, d21): 107.77%; RTV (mean ± SD) ([3]; 100 mg/kg po qd/21, d21): 0.05 ± 0.09; T/C (%) ([3]; 100 mg/kg po qd/21, day 21): 0.40%; inhibition at 0.2 µM (EBC-1 cell): 92.4%; inhibition at 1 µM (EBC-1 cell): 92.8%; IC50 [2]: 0.6 ± 0.1 nM
